{"source": "patent US9365572B2", "about": "“PI3K and/or mTOR inhibitor” (XUANZHU PHARMA CO., LTD., priority 2012, dated 2016)", "key": {"Opiate μ(OP3, MOP)": {"target": "Opiate μ(OP3, MOP) (Homo sapiens (Human), UniProt P35372)", "sequence (P35372 whole entry)": "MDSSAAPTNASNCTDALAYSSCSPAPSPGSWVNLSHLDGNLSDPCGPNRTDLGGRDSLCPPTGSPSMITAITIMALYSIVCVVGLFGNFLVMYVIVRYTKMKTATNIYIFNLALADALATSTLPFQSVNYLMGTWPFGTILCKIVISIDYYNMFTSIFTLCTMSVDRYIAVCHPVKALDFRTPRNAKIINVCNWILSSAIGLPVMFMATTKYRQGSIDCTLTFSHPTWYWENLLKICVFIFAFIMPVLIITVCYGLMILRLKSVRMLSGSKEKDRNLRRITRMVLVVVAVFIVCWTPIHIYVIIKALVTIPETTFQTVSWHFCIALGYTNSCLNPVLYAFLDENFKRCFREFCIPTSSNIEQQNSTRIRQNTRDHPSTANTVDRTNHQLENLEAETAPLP", "experiment": "Radioligand binding assay No. 260410", "conditions": "test substance 10 μM, read-out: Inhibitory rate (%), Opiate μ(OP3, MOP)"}, "[1]": {"target": "Epidermal Growth Factor (EGF) (Homo sapiens (Human), UniProt P00533)", "sequence (P00533 25-1210)": "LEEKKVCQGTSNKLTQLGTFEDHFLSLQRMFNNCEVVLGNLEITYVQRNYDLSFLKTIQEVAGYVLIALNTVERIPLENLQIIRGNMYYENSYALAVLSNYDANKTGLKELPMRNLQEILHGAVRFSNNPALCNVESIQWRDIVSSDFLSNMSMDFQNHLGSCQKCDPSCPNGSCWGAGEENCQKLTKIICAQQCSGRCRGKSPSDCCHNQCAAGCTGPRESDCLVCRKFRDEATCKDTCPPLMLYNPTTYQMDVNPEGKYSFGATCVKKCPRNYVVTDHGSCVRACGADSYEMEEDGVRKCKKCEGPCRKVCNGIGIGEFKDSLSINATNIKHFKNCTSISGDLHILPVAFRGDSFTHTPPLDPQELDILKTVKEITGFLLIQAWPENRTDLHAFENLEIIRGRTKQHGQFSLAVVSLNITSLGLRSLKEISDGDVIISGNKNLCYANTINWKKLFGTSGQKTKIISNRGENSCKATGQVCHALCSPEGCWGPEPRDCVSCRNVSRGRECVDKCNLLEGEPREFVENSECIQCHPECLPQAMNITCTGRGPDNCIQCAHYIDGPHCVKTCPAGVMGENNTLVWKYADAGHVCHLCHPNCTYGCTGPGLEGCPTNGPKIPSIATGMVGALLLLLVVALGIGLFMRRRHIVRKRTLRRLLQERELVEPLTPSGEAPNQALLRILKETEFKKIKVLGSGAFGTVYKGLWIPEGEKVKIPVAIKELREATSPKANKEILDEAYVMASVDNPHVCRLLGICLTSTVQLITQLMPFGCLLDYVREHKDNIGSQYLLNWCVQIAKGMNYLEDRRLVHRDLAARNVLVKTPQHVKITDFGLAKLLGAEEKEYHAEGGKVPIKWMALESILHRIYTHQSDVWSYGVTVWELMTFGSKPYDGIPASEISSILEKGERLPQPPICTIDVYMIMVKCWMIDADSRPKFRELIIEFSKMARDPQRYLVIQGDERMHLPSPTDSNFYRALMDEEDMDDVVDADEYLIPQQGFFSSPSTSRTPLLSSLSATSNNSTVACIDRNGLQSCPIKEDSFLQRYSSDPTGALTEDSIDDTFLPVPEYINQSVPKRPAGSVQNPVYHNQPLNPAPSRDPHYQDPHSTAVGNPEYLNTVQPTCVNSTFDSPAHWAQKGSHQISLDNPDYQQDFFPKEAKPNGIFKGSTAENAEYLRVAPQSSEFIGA", "experiment": "Radioligand binding assay No. 225510", "conditions": "test substance 10 μM, read-out: Inhibitory rate (%), Epidermal Growth Factor (EGF)"}, "Adrenergic α1D": {"target": "Adrenergic α1D (Homo sapiens (Human), UniProt P25100)", "sequence (P25100 whole entry)": "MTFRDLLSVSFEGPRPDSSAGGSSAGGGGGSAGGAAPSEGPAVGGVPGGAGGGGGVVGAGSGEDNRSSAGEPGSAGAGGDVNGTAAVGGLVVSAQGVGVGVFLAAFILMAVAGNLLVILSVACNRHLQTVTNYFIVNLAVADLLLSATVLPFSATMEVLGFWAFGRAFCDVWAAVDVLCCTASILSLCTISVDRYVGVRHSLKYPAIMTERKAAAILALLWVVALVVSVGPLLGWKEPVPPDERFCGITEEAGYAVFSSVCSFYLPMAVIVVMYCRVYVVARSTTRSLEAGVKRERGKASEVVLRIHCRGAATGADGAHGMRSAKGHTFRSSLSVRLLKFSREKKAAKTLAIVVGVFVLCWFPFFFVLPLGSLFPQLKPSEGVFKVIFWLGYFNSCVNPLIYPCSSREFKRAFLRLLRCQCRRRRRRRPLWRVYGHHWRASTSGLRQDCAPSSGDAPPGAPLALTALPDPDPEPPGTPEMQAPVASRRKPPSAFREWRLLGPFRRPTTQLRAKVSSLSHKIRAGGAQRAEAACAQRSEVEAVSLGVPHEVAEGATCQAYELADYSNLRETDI", "experiment": "Radioligand binding assay No. 203400", "conditions": "test substance 10 μM, read-out: Inhibitory rate (%), Adrenergic α1D"}, "[2]": {"target": "Serotonin (5-Hydroxytryptamine) 5-HT3 (Homo sapiens (Human), UniProt P46098)", "sequence (P46098 24-478)": "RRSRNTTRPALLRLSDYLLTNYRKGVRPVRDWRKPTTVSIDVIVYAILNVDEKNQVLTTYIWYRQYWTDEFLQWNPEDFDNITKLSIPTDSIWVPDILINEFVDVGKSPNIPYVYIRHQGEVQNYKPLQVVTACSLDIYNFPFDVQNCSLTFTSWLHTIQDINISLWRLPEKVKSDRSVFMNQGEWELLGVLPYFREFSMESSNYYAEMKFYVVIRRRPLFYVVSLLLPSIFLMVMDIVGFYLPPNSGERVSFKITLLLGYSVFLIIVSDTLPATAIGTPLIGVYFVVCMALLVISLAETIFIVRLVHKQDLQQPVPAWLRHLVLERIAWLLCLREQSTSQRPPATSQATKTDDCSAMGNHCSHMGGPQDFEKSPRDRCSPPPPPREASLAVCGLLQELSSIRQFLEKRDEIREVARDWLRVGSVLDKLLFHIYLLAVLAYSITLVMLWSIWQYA", "experiment": "Radioligand binding assay No. 271910", "conditions": "test substance 10 μM, read-out: Inhibitory rate (%), Serotonin (5-Hydroxytryptamine) 5-HT3"}, "Dopamine D1": {"target": "Dopamine D1 (Homo sapiens (Human), UniProt P21728)", "sequence (P21728 whole entry)": "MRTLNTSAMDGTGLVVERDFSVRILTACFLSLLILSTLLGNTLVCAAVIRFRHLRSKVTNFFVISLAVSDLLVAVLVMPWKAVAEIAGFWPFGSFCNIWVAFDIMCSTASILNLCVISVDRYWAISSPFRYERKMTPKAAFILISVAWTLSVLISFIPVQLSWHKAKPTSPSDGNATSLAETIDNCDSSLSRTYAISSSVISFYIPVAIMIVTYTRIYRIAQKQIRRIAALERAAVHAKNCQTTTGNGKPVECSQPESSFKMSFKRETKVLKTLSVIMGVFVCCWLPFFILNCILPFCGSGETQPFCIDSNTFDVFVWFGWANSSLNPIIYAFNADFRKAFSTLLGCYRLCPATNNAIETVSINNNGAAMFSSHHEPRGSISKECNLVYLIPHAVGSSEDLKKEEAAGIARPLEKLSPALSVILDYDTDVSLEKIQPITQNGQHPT", "experiment": "Radioligand binding assay No. 219500", "conditions": "test substance 10 μM, read-out: Inhibitory rate (%), Dopamine D1"}, "Calcium Channel N-Type": {"target": "Calcium Channel N-Type (Rattus norvegicus (Rat), UniProt Q02294)", "experiment": "Radioligand binding assay No. 216000", "conditions": "test substance 10 μM, read-out: Inhibitory rate (%), Calcium Channel N-Type"}, "A498": {"tested_on": "A498", "experiment": "In vitro cytological inhibitory activity (XTT)", "format": "cell-based", "conditions": "Homo sapiens, 72 hrs", "protocol": "A498: Human renal carcinoma cell line.\n1. Preparation of agents and compounds:\n• 1.1 Preparation of phosphoric acid buffering solution (PBS): 8 g NaCl, 0.2 g KCl, 1.44 g Na2HPO4 and 0.24 g KH2PO4 were weighed and added to 800 mL ultrapure water. The mixture was adjusted to pH=7.4, and ultrapure water was added to the metered volume of IL. Then the autoclaving was conducted for 20 mins. • 1.2 Preparation of XTT detection working solution: 100 mg (2,3-Bis-(2-methoxy-4-nitro-5-sulfophenyl)-2H-tetrazolium-5-carboxanilide); 2,3-bis(2-methoxy-4-nitro-5-sulfophenyl)-5-[(phenylamino)carbonyl]-2H-tetrazolium hydroxide (XTT) powder was weighed, and dissolved under protection from light 300 mL of phenol red-free and serum-free RPMI1640 culture, which had been warmed up to 50° C. The resulting mixture was filtered, packaged and used immediately or in one week. The complete process was conducted under protection from light. • 1.3 Preparation of the test compound • Preparation of the stock solution of the test compound: The test compound powder was dissolved in DMSO in a concentration of 10 mM. • Preparation of the gradiently diluted solution of the test compound: 10 mM of the stock solution of the test compound was successively and gradiently diluted with DMSO by 4 folds for 10 concentrations. […]"}, "[3]": {"target": "Androgen (Testosterone) AR (Rattus norvegicus (Rat), UniProt P15207)", "experiment": "Radioligand binding assay No. 285010", "conditions": "test substance 10 μM, read-out: Inhibitory rate (%), Androgen (Testosterone) AR"}, "[4]": {"tested_on": "Calcium Channel L-Type, Benzothiazepine", "experiment": "Radioligand binding assay No. 214510", "conditions": "test substance 10 μM; rat"}, "[5]": {"target": "Nicotinic Acetylcholine α1, Bungarotoxin (Homo sapiens (Human), UniProt P02708+P07510+Q07001)", "experiment": "Radioligand binding assay No. 258700", "conditions": "read-out: Inhibitory rate (%), Nicotinic Acetylcholine α1, Bungarotoxin"}, "Adrenergic α2A": {"target": "Adrenergic α2A (Homo sapiens (Human), UniProt P08913)", "sequence (P08913 whole entry)": "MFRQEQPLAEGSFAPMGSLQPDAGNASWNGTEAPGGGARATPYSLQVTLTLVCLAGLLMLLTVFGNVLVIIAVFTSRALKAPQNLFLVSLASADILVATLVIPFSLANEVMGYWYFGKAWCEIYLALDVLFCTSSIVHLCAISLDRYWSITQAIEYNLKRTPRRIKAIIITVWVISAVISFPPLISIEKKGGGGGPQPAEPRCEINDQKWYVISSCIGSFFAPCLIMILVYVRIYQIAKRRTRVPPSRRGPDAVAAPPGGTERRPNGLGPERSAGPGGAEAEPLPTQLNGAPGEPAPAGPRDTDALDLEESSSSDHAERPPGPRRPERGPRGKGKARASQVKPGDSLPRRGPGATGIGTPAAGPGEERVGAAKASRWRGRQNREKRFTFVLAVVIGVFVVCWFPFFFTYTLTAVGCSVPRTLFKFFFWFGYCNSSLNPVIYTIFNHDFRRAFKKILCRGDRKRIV", "experiment": "Radioligand binding assay No. 203620", "conditions": "test substance 10 μM, read-out: Inhibitory rate (%), Adrenergic α2A"}, "Dopamine D2S": {"target": "Dopamine D2S (Homo sapiens (Human), UniProt P14416)", "experiment": "Radioligand binding assay No. 219700", "conditions": "test substance 10 μM, read-out: Inhibitory rate (%), Dopamine D2S"}, "Phorbol Ester": {"tested_on": "Phorbol Ester", "experiment": "Radioligand binding assay No. 264500", "conditions": "test substance 10 μM; mouse"}, "Muscarinic M2": {"target": "Muscarinic M2 (Homo sapiens (Human), UniProt P08172)", "sequence (P08172 whole entry)": "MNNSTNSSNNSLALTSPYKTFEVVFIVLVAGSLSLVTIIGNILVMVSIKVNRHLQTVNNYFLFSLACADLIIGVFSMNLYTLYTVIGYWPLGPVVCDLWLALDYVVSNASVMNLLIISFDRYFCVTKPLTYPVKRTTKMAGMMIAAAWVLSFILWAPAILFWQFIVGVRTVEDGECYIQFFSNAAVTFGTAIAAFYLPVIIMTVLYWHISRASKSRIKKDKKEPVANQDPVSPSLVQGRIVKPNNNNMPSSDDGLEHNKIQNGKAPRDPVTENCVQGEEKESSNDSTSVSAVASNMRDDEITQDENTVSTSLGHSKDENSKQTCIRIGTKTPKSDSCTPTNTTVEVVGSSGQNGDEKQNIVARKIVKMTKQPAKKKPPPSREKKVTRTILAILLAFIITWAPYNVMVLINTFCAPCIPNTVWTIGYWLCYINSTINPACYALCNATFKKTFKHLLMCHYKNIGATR", "experiment": "Radioligand binding assay No. 252710", "conditions": "test substance 10 μM, read-out: Inhibitory rate (%), Muscarinic M2"}, "Endothelin ETA": {"target": "Endothelin ETA (Homo sapiens (Human), UniProt P25101)", "sequence (P25101 21-427)": "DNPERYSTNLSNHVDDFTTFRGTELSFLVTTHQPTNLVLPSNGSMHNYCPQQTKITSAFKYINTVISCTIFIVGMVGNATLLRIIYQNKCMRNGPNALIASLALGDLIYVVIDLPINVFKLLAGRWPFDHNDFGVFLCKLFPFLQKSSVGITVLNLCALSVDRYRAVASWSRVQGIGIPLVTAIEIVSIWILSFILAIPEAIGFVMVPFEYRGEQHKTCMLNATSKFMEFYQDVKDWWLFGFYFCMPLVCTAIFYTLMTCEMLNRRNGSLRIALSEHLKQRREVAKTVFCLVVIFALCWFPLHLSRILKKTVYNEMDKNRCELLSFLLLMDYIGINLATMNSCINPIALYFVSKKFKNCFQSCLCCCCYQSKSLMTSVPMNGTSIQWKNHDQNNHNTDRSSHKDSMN", "experiment": "Radioligand binding assay No. 224010", "conditions": "test substance 10 μM, read-out: Inhibitory rate (%), Endothelin ETA"}, "Dopamine D4.2": {"target": "Dopamine D4.2 (Homo sapiens (Human), UniProt P21917, DEL265-296)", "sequence (P21917 other isoform, or with tags, fused parts or gaps del 265-296)": "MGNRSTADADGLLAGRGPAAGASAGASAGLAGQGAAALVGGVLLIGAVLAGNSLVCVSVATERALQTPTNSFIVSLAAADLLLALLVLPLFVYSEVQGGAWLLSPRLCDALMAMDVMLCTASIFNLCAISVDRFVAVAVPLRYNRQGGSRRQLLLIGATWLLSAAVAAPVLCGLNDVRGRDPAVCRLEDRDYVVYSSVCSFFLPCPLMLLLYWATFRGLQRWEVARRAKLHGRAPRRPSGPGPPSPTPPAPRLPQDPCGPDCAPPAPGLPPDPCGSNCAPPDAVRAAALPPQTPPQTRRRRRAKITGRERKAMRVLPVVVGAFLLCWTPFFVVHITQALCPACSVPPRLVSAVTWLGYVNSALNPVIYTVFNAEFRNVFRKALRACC", "experiment": "Radioligand binding assay No. 219900", "conditions": "test substance 10 μM, read-out: Inhibitory rate (%), Dopamine D4.2"}}}
{"smiles": "Nc1ccc(-c2ccc3ncc4c(=O)[nH]c(=O)n(-c5cccc(C(F)(F)F)c5)c4c3n2)cn1", "note": "[Compound 5, 9-(6-aminopyridin-3-yl)-1-(3-(trifluoromethyl)phenyl)pyrimido[5,4-c][1,5]naphthyridine-2,4(1H,3H)-dione]", "values": [{"measurement": "inhibition at 10 µM", "setting": "Opiate μ(OP3, MOP)", "result": 2, "unit": "%"}, {"measurement": "inhibition at 10 µM", "setting": "[1]", "result": 11, "unit": "%"}, {"measurement": "inhibition at 10 µM", "setting": "Adrenergic α1D", "result": 9, "unit": "%"}, {"measurement": "inhibition at 10 µM", "setting": "[2]", "result": 8, "unit": "%"}, {"measurement": "inhibition at 10 µM", "setting": "Dopamine D1", "result": 21, "unit": "%"}, {"measurement": "inhibition at 10 µM", "setting": "Calcium Channel N-Type", "result": -22, "unit": "%"}, {"measurement": "IC50", "setting": "A498", "result": 83.7, "unit": "nM"}, {"measurement": "inhibition at 10 µM", "setting": "[3]", "result": 30, "unit": "%"}, {"measurement": "Inhibitory rate (%), Calcium Channel L-Type, Benzothiazepine", "setting": "[4]", "result": 15, "unit": "%"}, {"measurement": "inhibition at 10 µM", "setting": "[5]", "result": 4, "unit": "%"}, {"measurement": "inhibition at 10 µM", "setting": "Adrenergic α2A", "result": 19, "unit": "%"}, {"measurement": "inhibition at 10 µM", "setting": "Dopamine D2S", "result": 14, "unit": "%"}, {"measurement": "Inhibitory rate (%), Phorbol Ester", "setting": "Phorbol Ester", "result": 27, "unit": "%"}, {"measurement": "inhibition at 10 µM", "setting": "Muscarinic M2", "result": -4, "unit": "%"}, {"measurement": "inhibition at 10 µM", "setting": "Endothelin ETA", "result": 3, "unit": "%"}, {"measurement": "inhibition at 10 µM", "setting": "Dopamine D4.2", "result": 12, "unit": "%"}]}
